In PMC11310081, “Deep-learning-enabled antibiotic discovery through molecular de-extinction” (Nature Biomedical Engineering, 2024):
≈ marks a conversion by molar mass, not a printed value. Peptide text beside a SMILES is read from it.

Tests used:
A. baumannii ATCC 19606 [1] = assay: Cytoplasmic membrane depolarization assay (DiSC3-5); assay type: cell-based, Acinetobacter baumannii; details: DiSC3-5 fluorescence, peptide at its MIC, polymyxin B as positive control; three replicates
Procedure: The depolarization of the bacterial cytoplasmic membrane was determined by fluorescence measurements of the membrane potential-sensitive dye, DiSC3-5 (ref. [16]). Briefly, A. baumannii ATCC 19606 and P. aeruginosa PAO1 were grown at 37 °C until mid-log phase (OD600 = 0.5). The cells were then centrifuged using the same conditions described for the NPN uptake assays, washed twice with washing buffer containing 20 mmol l^−1 glucose and 5 mmol l^−1 HEPES (pH 7.2). The cells were diluted 1:10 (OD600 = 0.05) in a buffer containing 0.1 mol l^−1 KCl, 20 mmol l^−1 glucose and 5 mmol l^−1 HEPES (pH 7.2). About 100 μl of bacterial solution was then incubated for 15 min with 20 nmol l^−1 of DiSC3-5 until the fluorescence reached a plateau, that is, the dye was fully internalized into the bacterial membrane. Transmembrane potential changes were monitored by observing the difference in the fluorescence emission intensity of DiSC3-5 (λex = 622 nm, λem = 670 nm), after the addition of 100 μl of peptide aqueous solution at its MIC. All assays were performed in three biological replicates. The relative fluorescence values were calculated for the course of the experiment using non-linear fitting, and the untreated control (buffer + bacteria + fluorescent dye) served as baseline. The following equation was applied to show the percentage difference between the fluorescence of the untreated control (baseline) and the sample: Percentagedifference=100×(fluorescencesample−baseline)/baseline

[2] = tested on: 11 clinically relevant bacterial pathogens; assay type: cell-based; details: for Active or Inactive: Supplementary Dataset 2, against the 11 pathogens tested
Method in brief: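 Strains, plated on LB or Pseudomonas isolation agar, were subcultured 1:100 and grown at 37 °C into logarithmic phase before peptide dilutions (1–64 μmol l^−1) were applied. Absorbance at 600 nm gave growth; three biological replicates.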

A. baumannii ATCC 19606 [3] = assay type: cell-based, Acinetobacter baumannii; details: ATCC 19606, 20 h
Excerpt: (§1) The following Gram-negative bacteria were used in our study: A. baumannii ATCC 19606, E. coli ATCC 11775, E. coli AIC221 (E. coli MG1655 phnE_2::FRT), E. coli AIC222 (E. coli MG1655 pmrA53 phnE_2::FRT (colistin resistant)), K. pneumoniae ATCC 13883, P. aeruginosa PAO1 and P. aeruginosa PA14. The following Gram-positive bacteria were also used in our study: S. aureus ATCC 12600, S. aureus ATCC BAA-1556 (methicillin-resistant strain), E. faecalis ATCC 700802 (vancomycin-resistant strain) and E. faecium ATCC 700221 (vancomycin-resistant strain). Bacteria were grown from frozen stocks and plated on Luria–Bertani (LB) or Pseudomonas isolation agar plates (P. aeruginosa strains) and incubated overnight at 37 °C. After the incubation period, a single colony was transferred to 5 ml of LB medium, and cultures were incubated overnight (16 h) at 37 °C. The following day, an inoculum was prepared by diluting the overnight cultures 1:100 in 5 ml of the respective media and incubating them at 37 °C until bacteria reached logarithmic phase (OD600 = 0.3–0.5).
(§2) The in vitro antimicrobial activity of the peptides was assessed by using the broth microdilution assay. […] Aqueous solutions of the peptides were added to the plate at concentrations ranging from 1 to 64 μmol l^−1. […] The optical density of the plates was measured at 600 nm using a spectrophotometer. All assays were done as three biological replicates.

HEK293T cells = details: 24 h
Method in brief: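 5,000 cells/well seeded a day ahead in DMEM with 10% FBS, then treated with peptides; viability by MTT (0.5 mg/ml, 4 h, 37 °C), formazan in acidic isopropanol read at 570 nm. Concentration causing 50% lysis from non-linear regression; three biological replicates, two technical each.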

[4] = tested on: E. faecium ATCC 700221 (vancomycin-resistant strain); assay type: cell-based, Enterococcus faecium; details: ATCC 700221, 20 h
Excerpt: as §1, §2

K. pneumoniae ATCC 13883 = assay type: cell-based, Klebsiella pneumoniae; details: ATCC 13883, 20 h
Excerpt: as §1, §2

E. coli AIC221 = assay type: cell-based, Escherichia coli; details: AIC221, 20 h
Excerpt: as §1, §2

P. aeruginosa PA14 = assay type: cell-based, Pseudomonas aeruginosa; details: PA14, 20 h
Excerpt: as §1, §2

P. aeruginosa PAO1 = assay type: cell-based, Pseudomonas aeruginosa; details: PAO1, 20 h
Excerpt: as §1, §2

[5] = tested on: S. aureus ATCC BAA-1556 (methicillin-resistant strain); assay type: cell-based, Staphylococcus aureus; details: ATCC BAA-1556, 20 h
Excerpt: as §1, §2

[6] = tested on: E. faecalis ATCC 700802 (vancomycin-resistant strain); assay type: cell-based, Enterococcus faecalis; details: ATCC 700802, 20 h
Excerpt: as §1
as §2, with “All assays were done as three biological replicates.” left out

S. aureus ATCC 12600 = assay type: cell-based, Staphylococcus aureus; details: ATCC 12600, 20 h
Excerpt: as §1, §2

SMILES	Cytoplasmic membrane depolarization, in words (A. baumannii ATCC 19606 [1])	Active or Inactive [2]	Minimal inhibitory concentration, A. baumannii ATCC19606 (A. baumannii ATCC 19606 [3])	CC50 (HEK293T cells)	TI (therapeutic index) (HEK293T cells)	MIC (lowest MIC value in the antimicrobial activity assays) ([2]; Supplementary Table 17, lowest MIC among the strains tested)	Minimal inhibitory concentration, E. faecium ATCC700221-VRE [4]	Minimal inhibitory concentration, K. pneumoniae ATCC133883 (K. pneumoniae ATCC 13883)	Minimal inhibitory concentration, E. coli AIC221 (E. coli AIC221)	Minimal inhibitory concentration, P. aeruginosa PA14 (P. aeruginosa PA14)	Minimal inhibitory concentration, P. aeruginosa PAO1 (P. aeruginosa PAO1)	Minimal inhibitory concentration, S. aureus ATCC BAA-1556-MRSA [5]	Minimal inhibitory concentration, E. faecalis ATCC700802-VRE [6]	Minimal inhibitory concentration, S. aureus ATCC12600 (S. aureus ATCC 12600)
CC[C@H](C)[C@H](NC(=O)CNC(=O)[C@H](Cc1c[nH]cn1)NC(=O)[C@H](CC(N)=O)NC(=O)[C@H](CCCCN)NC(=O)[C@H](CCC(N)=O)NC(=O)[C@@H](N)CCCNC(=N)N)C(=O)N[C@@H](Cc1c[nH]cn1)C(=O)N[C@@H](Cc1ccccc1)C(=O)N[C@@H](CCCNC(=N)N)C(=O)N[C@H](C(=O)N[C@@H](CC(C)C)C(=O)N[C@@H](C)C(=O)N[C@@H](CCCCN)C(=O)N[C@@H](C)C(=O)N[C@@H](CC(C)C)C(=O)N[C@@H](CCCNC(=N)N)C(=O)O)C(C)C [Hesperelin-3] (H-RQKNHGIHFRVLAKALR-OH; N-terminus and C-terminus assumed)	most potent depolarization effects	Active	–	–	–	–	–	–	–	–	–	–	–	–
CC[C@H](C)[C@H](NC(=O)[C@H](CCCCN)NC(=O)[C@@H](N)CCCNC(=N)N)C(=O)N[C@@H](CC(C)C)C(=O)NCC(=O)N[C@@H](CC(=O)O)C(=O)N[C@@H](CC(C)C)C(=O)N[C@@H](CCCCN)C(=O)N[C@@H](Cc1ccccc1)C(=O)N[C@@H](CC(C)C)C(=O)N[C@@H](CCC(=O)O)C(=O)N[C@@H](CO)C(=O)N[C@@H](CC(C)C)C(=O)N[C@@H](CCCCN)C(=O)N[C@H](C(=O)N[C@@H](Cc1ccc(O)cc1)C(=O)O)[C@@H](C)O [Anomalopterin-1] (H-RKILGDLKFLESLKTY-OH; N-terminus and C-terminus assumed)	most potent depolarization effects	Active	64 µM (≈ 123 µg/mL)	> 128 µM	> 2	–	–	–	–	–	–	–	–	–
CC(C)C[C@H](NC(=O)[C@H](CC(C)C)NC(=O)[C@@H](NC(=O)[C@H](CCCNC(=N)N)NC(=O)[C@H](C)NC(=O)[C@H](Cc1ccccc1)NC(=O)[C@H](CCCNC(=N)N)NC(=O)[C@H](CO)NC(=O)[C@H](Cc1c[nH]c2ccccc12)NC(=O)[C@H](CCCNC(=N)N)NC(=O)[C@H](CC(C)C)NC(=O)[C@H](CCCCN)NC(=O)[C@H](CC(C)C)NC(=O)[C@@H](N)Cc1ccccc1)C(C)C)C(=O)O [Equusin-1] (H-FLKLRWSRFARVLL-OH; N-terminus and C-terminus assumed)	–	Active	–	> 128 µM	–	1 µM (≈ 1.81 µg/mL)	1 µM (≈ 1.81 µg/mL)	16 µM (≈ 28.9 µg/mL)	4 µM (≈ 7.22 µg/mL)	4 µM (≈ 7.22 µg/mL)	16 µM (≈ 28.9 µg/mL)	16 µM (≈ 28.9 µg/mL)	–	–
CC[C@H](C)[C@H](NC(=O)[C@H](Cc1ccc(O)cc1)NC(=O)[C@H](C)NC(=O)[C@@H](N)CCCNC(=N)N)C(=O)N[C@@H](CS)C(=O)N[C@@H](CCCNC(=N)N)C(=O)N[C@@H](CCCCN)C(=O)N[C@@H](CCCCN)C(=O)N[C@@H](Cc1ccccc1)C(=O)N[C@@H](CC(C)C)C(=O)N[C@@H](CO)C(=O)N[C@@H](CC(C)C)C(=O)N[C@@H](CCCNC(=N)N)C(=O)N[C@@H](CCCCN)C(=O)N[C@@H](C)C(=O)N[C@@H](CO)C(=O)N[C@H](C(=O)N[C@@H](CCCCN)C(=O)N[C@@H](CC(C)C)C(=O)N[C@@H](CCC(N)=O)C(=O)N[C@@H](CO)C(=O)N[C@@H](CC(C)C)C(=O)N[C@H](C(=O)N[C@@H](CCCNC(=N)N)C(=O)N[C@@H](CCSC)C(=O)N[C@@H](CCCCN)C(=O)O)C(C)C)[C@@H](C)CC [Equusin-2] (H-RAYICRKKFLSLRKASIKLQSLVRMK-OH; N-terminus and C-terminus assumed)	most potent depolarization effects	Active	8 µM (≈ 25.1 µg/mL)	> 128 µM	> 16	–	–	–	16 µM (≈ 50.2 µg/mL)	–	–	–	–	–
CC[C@H](C)[C@H](NC(=O)[C@H](CCCCN)NC(=O)[C@H](CCCCN)NC(=O)[C@H](Cc1ccccc1)NC(=O)[C@H](Cc1ccccc1)NC(=O)[C@@H](NC(=O)[C@@H](NC(=O)[C@H](CO)NC(=O)[C@H](CCCCN)NC(=O)[C@@H](NC(=O)[C@@H](NC(=O)[C@H](Cc1c[nH]c2ccccc12)NC(=O)[C@H](CCCCN)NC(=O)[C@H](CCCCN)NC(=O)[C@@H](NC(=O)[C@H](CCC(=O)O)NC(=O)[C@H](CCCCN)NC(=O)[C@H](CC(C)C)NC(=O)[C@@H](NC(=O)[C@H](CCCCN)NC(=O)[C@H](CCCNC(=N)N)NC(=O)[C@H](CC(C)C)NC(=O)[C@H](CC(C)C)NC(=O)[C@@H](N)CCCCN)C(C)C)[C@@H](C)O)C(C)C)[C@@H](C)CC)C(C)C)C(C)C)C(=O)N[C@@H](CCCNC(=N)N)C(=O)N[C@@H](CCCCN)C(=O)O [Hesperelin-1] (H-KLLRKVLKETKKWVIKSVVFFKKIRK-OH; N-terminus and C-terminus assumed)	–	Active	4 µM (≈ 13 µg/mL)	> 128 µM	–	–	2 µM (≈ 6.49 µg/mL)	–	8 µM (≈ 26 µg/mL)	16 µM (≈ 51.9 µg/mL)	8 µM (≈ 26 µg/mL)	–	–	–
CC[C@H](C)[C@H](NC(=O)[C@H](CCCCN)NC(=O)[C@H](CC(C)C)NC(=O)[C@H](CCC(N)=O)NC(=O)[C@H](Cc1ccccc1)NC(=O)[C@@H](NC(=O)[C@@H](NC(=O)[C@H](Cc1ccccc1)NC(=O)[C@H](CC(C)C)NC(=O)[C@@H](NC(=O)[C@@H](N)CC(C)C)[C@@H](C)O)[C@@H](C)CC)[C@@H](C)CC)C(=O)N[C@@H](CO)C(=O)N[C@@H](CCCCN)C(=O)N[C@@H](CC(C)C)C(=O)O [Paleopropin-1] (H-LTLFIIFQLKISKL-OH; N-terminus and C-terminus assumed)	–	Active	–	> 128 µM	> 4	–	–	–	–	–	–	–	16 µM (≈ 26.8 µg/mL)	–
CC[C@H](C)[C@H](NC(=O)[C@H](CO)NC(=O)CNC(=O)[C@H](CC(C)C)NC(=O)[C@H](CC(C)C)NC(=O)[C@H](CC(C)C)NC(=O)[C@H](CCCNC(=N)N)NC(=O)[C@H](CCCCN)NC(=O)[C@@H](NC(=O)[C@H](CO)NC(=O)[C@H](CC(N)=O)NC(=O)[C@@H](NC(=O)[C@H](CC(C)C)NC(=O)[C@@H](N)CC(C)C)[C@@H](C)CC)[C@@H](C)CC)C(=O)N[C@@H](CC(C)C)C(=O)O [Arctodutin-1] (H-LLINSIKRLLLGSIL-OH; N-terminus and C-terminus assumed)	–	Active	8 µM (≈ 13.3 µg/mL)	> 128 µM	–	–	2 µM (≈ 3.33 µg/mL)	–	–	–	–	8 µM (≈ 13.3 µg/mL)	–	8 µM (≈ 13.3 µg/mL)
